# Results published in patent US12194043B2, “Uridine phosphorylase inhibitors to treat or prevent pulmonary disease” (Tosk, Inc., priority 2020, dated 2025).
# “Also recorded” adds a separate entry of the source.
# Legend:
# [1] = Elimination t1/2 of Compound 1 in mice; settings: mouse, in vivo
# plasma UR = test: Plasma UR concentration versus plasma Compound 1 concentration after continuous infusion via sc implanted osmotic pumps; format: in vivo; settings: BDF-1 male mice; for effect on plasma UR: constant-rate sc infusion 667, 833 or 3000 mg/kg/day, plasma at 72 h or 24 h
# Procedure: Solutions of Compound I were prepared at a concentration of 500 mg/mL in sterile PBS. Osmotic pumps (ALZET® micro-osmotic pump 2001D and 1003D, Alza Co) were loaded with 200 μL (2001D osmotic pump) and/or 100 μL (1003D osmotic pump) of TK-112690 solution.
# BDF-1 male mice (n=6) were treated with a constant-rate infusion of 667, 833 or 3000 mg/kg/day doses of Compound I delivered via subcutaneously implanted osmotic pumps. Animals were anesthetized with 100 mg/kg ketamine prior to pump implantation. Surgical scissors were used to make an approximately 1 cm incision on the dorsal surface near the shoulder blade of animals. A hemostat was used to carve out a subcutaneous tunnel toward the anterior end of animal. Osmotic pumps were placed inside the subcutaneous tunnel. Incision was sealed with wound clips.
# Blood collections were performed on animals anesthetized with ketamine (ip 100 mg/kg). Blood samples from animals treated with a constant-rate infusion of TK-112690 were collected at 72 hours for 667 mg/kg/day and 833 mg/kg/day and 24 hours for 3000 mg/kg/day after pump implantation. Whole blood (˜0.8 mL) was drawn through the retro-orbital sinus using a heparin coated micro-hematocrit tube and collected into an EDTA microtainer tube. Blood samples were transferred into fresh 1.5 mL microcentrifuge tubes and centrifuged for 10 minutes at 14,000×g using an Eppendorf Minispin Plus stored in a 4° C. refrigerator. Exactly 0.4 mL of plasma was transferred into fresh microcentrifuge tubes containing 2 μL of 10 mM 5-FU and vortexed at highest setting for approximately 5 seconds. The final 50 μM concentration of 5-FU served as an internal standard. Animals were sacrificed by cervical dislocation and properly disposed.
# Blood samples from animals treated with a constant-rate infusion of compound I were collected at 72 hours for 667 mg/kg/day and 833 mg/kg/day and 24 hours for 3000 mg/kg/day after pump implantation. […]
# A solid-phase extraction (SPE) of analytes (UR, Compound I and 5-FU) from plasma was conducted before HPLC analysis. […] Samples were transferred into fresh HPLC vials and analyzed. […]
# [2] = test system: C57BL/6 male mice treated with bleomycin (pulmonary fibrosis); test: Bleomycin/pulmonary fibrosis study, lung histology (Masson's trichrome, Ashcroft fibrosis grading); format: in vivo; settings: bleomycin OA day 0, 60 mg/kg IP BID days 7 through 20; for statistical significance of the decrease in fibrosis vs dosing vehicle: SPSS version 20
# Description: FIG. 2. Figure is a chart providing histology scores for pulmonary tissue from mice treated with bleomycin (a well characterized lung toxin) and either dosing vehicle, UR, or TK-112690.
# Thirty-three C57BL/6 male mice, 10-14 weeks at study initiation, were acclimatized for least 3 days. The mouse has been selected as is referenced in the literature as a representative species of choice for this experimental animal model. During acclimation and throughout the entire study duration, animals were housed within a limited access rodent facility and kept in groups of a maximum of 4 mice per cage. Mice were housed in polypropylene cages with solid bottoms and wood shavings or corn Cobb as bedding material. Animals were provided ad libitum with a commercial rodent diet and had free access to drinking water that is supplied to each cage via polyethylene bottles. The automatically controlled environmental conditions was set to maintain temperature at 20-26° C. with a relative humidity (RH) of 30-70%, a 12:12 hour light: dark cycle, and 10-15 air changes/hour in the study room. Animals were given a unique animal identification tail mark as a means of identification. This number also appeared on a cage card, which is visible on the front of each cage. The cage card also contains the study and group numbers, route of administration, gender, study director and arrival date.
# Animals were randomly assigned to cages on arrival. Animals were assigned to treatment groups prior to treatment initiation. At study termination, surviving animals were weighed prior to euthanasia. Euthanasia was performed via anesthesia overdose and exsanguination.
# The table below lists the experimental group(s) comprising the study.
# Disease Induction. 75 uL of Bleomycin (section 4.5.) was administered on day 0 via oropharyngeal aspiration (O.A.). The mice were anesthetized via isoflurane/oxygen and suspended by their cranial incisors on a thin wire from an angled stand. The tongue was be gently held from the mouth using blunt forceps to visualize the base of the tongue and the pharynx. Bleomycin/saline suspension was pipetted onto posterior pharynx. Nostrils will be held gently closed. Respiration was monitored to ensure the suspension is fully aspirated.
# Treatment. Groups 3 and 4 were treated via intraperitoneal (IP) injection at a dosing volume of 10 ml/kg twice daily, 6-8 hours between doses, from days 7 through 20.
# Observations and Examinations. […]
# Histology. […] Disease severity and collagen levels were assessed by the Ashcroft fibrosis grading system.
# The resulting data were analyzed by SPSS, version 20.
# [3] = cited: Deng et al., Science 2017; cited from earlier work
half-life [1] [h],Structure (SMILES),effect on plasma UR (plasma UR),effect on plasma UR (plasma UR; listed as TK-112690),"slope of regression line, plasma UR concentration vs plasma Compound 1 concentration (plasma UR; continuous infusion of various amounts)",less fibrosis (histology score) than mice treated with the dosing vehicle [2] [%],statistical significance of the decrease in fibrosis vs dosing vehicle [2],elimination t1/2 [3]
1 to 2,Cc1cn2c(nc1=O)O[C@H]1[C@H](O)[C@@H](CO)O[C@H]12 [Compound 1],elevate plasma UR in a linear fashion,elevate plasma UR in a linear fashion; also recorded: associated with higher levels of UR,0.010,30,statistically significant,–
–,"O=c1ccn([C@@H]2O[C@H](CO)[C@@H](O)[C@H]2O)c(=O)[nH]1 [UR, uridine]",–,–,–,7,not statistically significant,only a few minutes
